The source of these data is US8258151B2, “3-aminoimidazo [1,2-A] pyridine derivatives as SGLT inhibitors” (Merck Patent GmbH, priority 2006, dated 2012).

For orientation: IC50 means the midpoint of a concentration-inhibition curve. Read a low IC50 as inhibition by little substance.

Where only a bound is given, the exact number is not on record here.

One experiment deals with T1, SGLT1 (Homo sapiens, UniProt P13866).
T1 construct: expressed in transfected cells
T1 sequence (P13866 1-664): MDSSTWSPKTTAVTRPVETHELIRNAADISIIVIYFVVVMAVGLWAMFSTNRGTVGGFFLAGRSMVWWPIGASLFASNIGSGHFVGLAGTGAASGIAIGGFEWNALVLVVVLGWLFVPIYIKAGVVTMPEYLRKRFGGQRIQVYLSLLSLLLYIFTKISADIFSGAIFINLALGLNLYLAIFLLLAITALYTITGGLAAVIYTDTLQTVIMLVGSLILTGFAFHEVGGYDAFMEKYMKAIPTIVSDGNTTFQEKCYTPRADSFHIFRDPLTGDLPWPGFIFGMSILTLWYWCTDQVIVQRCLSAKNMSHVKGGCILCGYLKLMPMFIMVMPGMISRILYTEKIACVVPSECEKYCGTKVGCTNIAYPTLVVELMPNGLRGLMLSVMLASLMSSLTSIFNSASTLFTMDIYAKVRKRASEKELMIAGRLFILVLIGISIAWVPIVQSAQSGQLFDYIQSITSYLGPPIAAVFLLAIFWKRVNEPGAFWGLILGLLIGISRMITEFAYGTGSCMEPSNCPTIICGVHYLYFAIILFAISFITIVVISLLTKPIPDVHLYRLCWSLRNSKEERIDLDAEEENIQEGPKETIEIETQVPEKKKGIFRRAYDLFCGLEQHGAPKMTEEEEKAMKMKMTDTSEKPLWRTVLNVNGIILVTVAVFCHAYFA
Put plainly: SGLT1 activity measurement: 14C-AMG uptake in BHK cells transfected with SGLT1. It counts as cell-based. The settings on record: AMG 50 μM, 37° C., 90 min. An outline of the steps: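 BHK21 cells stably transfected with human SLC5A1 were incubated with 14C-AMG (added solution at 50 μM) ± compound for 90 min at 37 °C. The buffer was 140 mM NaCl, HEPES/Tris, pH 7.4. Lysed-cell radioactivity was counted by scintillation, and non-specific uptake was measured in sodium-free sucrose buffer.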

The target of another experiment is T2, SGLT2 (Homo sapiens, UniProt P31639).
T2 construct: expressed in transfected cells
T2 sequence (P31639 1-672): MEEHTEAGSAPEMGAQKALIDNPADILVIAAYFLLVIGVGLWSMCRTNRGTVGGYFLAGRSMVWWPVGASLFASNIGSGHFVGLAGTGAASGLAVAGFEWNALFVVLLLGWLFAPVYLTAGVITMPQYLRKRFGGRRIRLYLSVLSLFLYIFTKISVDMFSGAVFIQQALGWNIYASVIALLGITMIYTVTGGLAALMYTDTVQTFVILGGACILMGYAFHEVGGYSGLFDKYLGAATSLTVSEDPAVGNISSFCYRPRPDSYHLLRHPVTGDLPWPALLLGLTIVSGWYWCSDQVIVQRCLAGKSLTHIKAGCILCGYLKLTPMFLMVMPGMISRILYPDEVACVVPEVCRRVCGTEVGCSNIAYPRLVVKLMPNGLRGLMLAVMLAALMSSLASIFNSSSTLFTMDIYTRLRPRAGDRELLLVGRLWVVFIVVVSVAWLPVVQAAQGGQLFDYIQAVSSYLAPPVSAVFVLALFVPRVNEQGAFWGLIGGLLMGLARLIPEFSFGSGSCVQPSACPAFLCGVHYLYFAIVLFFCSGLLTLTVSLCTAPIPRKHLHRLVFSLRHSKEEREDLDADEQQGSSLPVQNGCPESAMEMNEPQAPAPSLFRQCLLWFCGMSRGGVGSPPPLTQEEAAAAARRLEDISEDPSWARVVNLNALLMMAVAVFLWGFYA
In words: SGLT2 activity measurement: 14C-AMG uptake in BHK cells transfected with SGLT2. It counts as cell-based. The note with it: AMG 2 mM, 37° C., 90 min. An outline of the steps: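 BHK21 cells stably expressing human SGLT2 took up 14C-AMG (added as 2 mM solution) ± compound for 90 min at 37 °C in Na+-containing HEPES/Tris buffer, pH 7.4. Uptake was measured by scintillation counting after lysis. Non-specific uptake was defined in sodium-free sucrose buffer.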

As to `CCc1cc(OC)cc(OCC(N)=O)c1-c1nc2ccc(F)cn2c1Nc1c(C)ccc(Cl)c1C` [Compound A217, 2-[2-(Aminocarbonylmethoxy)-4-methoxy-6-ethylphenyl]-3-(3-chloro-2,6-dimethylphenyl-amino)-6-fluoroimidazo[1,2-a]pyridine], the concentration for half-maximal inhibition (IC50) was in the range of 1 to 10 µM against SGLT1 and 0.01 to 1 µM at SGLT2.
Taken in the same sequence, the figures for `Cc1cccc(C)c1Nc1c(-c2c(O)cccc2OCC(N)=O)nc2ccccn12` [Compound A176, 2-[2-(Aminocarbonylmethoxy)-6-hydroxyphenyl]-3-(2,6-dimethylphenylamino)imidazo[1,2-a]-pyridine] were over 10 µM and 1 to 10 µM.
The like results for `COc1cc(C)c(-c2nc3ccc(F)cn3c2Nc2c(Br)cc(F)cc2Br)c(OCC(N)=O)c1` [Compound A238, 2-[2-(Aminocarbonylmethoxy)-4-methoxy-6-methylphenyl]-3-(2,6-dibromo-4-fluorophenyl-amino)-6-fluoroimidazo[1,2-a]pyridine] were, in that order, 1 to 10 µM and 0.01 to 1 µM.
Taken in the same sequence, the figures for `COc1cc(C)c(-c2nc3c(F)cc(F)cn3c2Nc2c(C)cc(F)cc2C)c(OCC(N)=O)c1` [Compound A251, 2-[2-(Aminocarbonylmethoxy)-4-methoxy-6-methylphenyl]-3-(2,6-dimethyl-4-fluorophenyl-amino)-6,8-difluoroimidazo[1,2-a]pyridine] were 1 to 10 µM and 0.01 to 1 µM.
`COc1cc(C)c(-c2nc3c(N)cccn3c2Nc2c(C)cccc2C)c(OCC(N)=O)c1` [Compound A191, 2-[2-(Aminocarbonylmethoxy)-4-methoxy-6-methylphenyl]-3-(2,6-dimethylphenylamino)-8-aminoimidazo[1,2-a]pyridine]: the IC50 against SGLT1 was over 10 µM; against SGLT2 it was 0.01 to 1 µM.
Taken in the same sequence, the figures for `COc1cc(C)c(-c2nc3ccc(F)cn3c2Nc2c(C)cccc2Cl)c(OCC(N)=O)c1` [Compound A256, 2-[2-(Aminocarbonylmethoxy)-4-methoxy-6-methylphenyl]-3-(2-chloro-6-methylphenyl-amino)-6-fluoroimidazo[1,2-a]pyridine] were 1 to 10 µM and 0.01 to 1 µM.
As to `CCc1cccc2nc(-c3ccccc3OCC(N)=O)c(Nc3c(C)cccc3C)n12` [Compound A13, 2-[2-(Aminocarbonylmethoxy)phenyl]-3-(2,6-dimethylphenylamino)-5-ethylimidazo[1,2-a]-pyridine], the IC50 against SGLT1 lay within 1 to 10 µM; against SGLT2 it was 0.01 to 1 µM.
Take `CCc1cc(OC)cc(OCC(N)=O)c1-c1nc2ccc(F)cn2c1Nc1c(C)cc(C(=O)OC)cc1C` [Compound A245, 2-[2-(Aminocarbonylmethoxy)-4-methoxy-6-ethylphenyl]-3-(2,6-dimethyl-4-methoxycarbonyl-phenylamino)-6-fluoroimidazo[1,2-a]pyridine]: the results for the IC50 at SGLT1 and against SGLT2 were over 10 µM and 1 to 10 µM, respectively.
As for `COc1cc(OC)c(-c2nc3ccc(F)cn3c2Nc2c(C)cc(F)cc2C)c(OCC(N)=O)c1` [Compound A200, 2-[2-(Aminocarbonylmethoxy)-4-methoxy-6-methoxyphenyl]-3-(2,6-dimethyl-4-fluorophenyl-amino)-6-fluoroimidazo[1,2-a]pyridine], the figures for the IC50 at SGLT1 and at SGLT2 were over 10 µM and 0.01 to 1 µM, respectively.
Taken in the same sequence, the figures for `COc1cc(OC)c(-c2nc3ccc(F)cn3c2Nc2c(C)cccc2C)c(OCC(N)=O)c1` [Compound A199, 2-[2-(Aminocarbonylmethoxy)-4-methoxy-6-methoxyphenyl]-3-(2,6-dimethylphenylamino)-6-fluoroimidazo[1,2-a]pyridine] were over 10 µM and 0.01 to 1 µM.
Consider `COc1cc(C)c(-c2nc3cccc(C)n3c2Nc2c(C)cccc2C)c(OCC(N)=O)c1` [Compound A206, 2-[2-(Aminocarbonylmethoxy)-4-methoxy-6-methylphenyl]-3-(2,6-dimethylphenylamino)-5-methylimidazo[1,2-a]pyridine], for which the IC50 was over 10 µM at SGLT1 and 0.01 to 1 µM against SGLT2.
As for `Cc1cccc(Cl)c1Nc1c(-c2ccccc2OCC(N)=O)nc2ccccn12` [Compound A6, 2-[2-(Aminocarbonylmethoxy)phenyl]-3-(2-chloro-6-methylphenylamino)imidazo[1,2-a]-pyridine], the IC50 against SGLT1 is over 10 µM; against SGLT2, 0.01 to 1 µM.
Take `COc1cc(C)c(-c2nc3cccc(N)n3c2Nc2c(C)cccc2C)c(OCC(N)=O)c1` [Compound A207, 2-[2-(Aminocarbonylmethoxy)-4-methoxy-6-methylphenyl]-3-(2,6-dimethylphenylamino)-5-aminoimidazo[1,2-a]pyridine]: the values for the IC50 against SGLT1 and against SGLT2 were over 10 µM and 0.01 to 1 µM, respectively.
Regarding `CCc1cc(OCC(N)=O)cc(OCC(N)=O)c1-c1nc2ccc(F)cn2c1Nc1c(C)cccc1C` [Compound A230, 2-[2-(Aminocarbonylmethoxy)-4-(amino-carbonylmethoxy)-6-ethylphenyl]-3-(2,6-dimethylphenylamino)-6-fluoroimidazo[1,2-a]-pyridine], the IC50 against SGLT1 is over 10 µM; at SGLT2 it was 0.01 to 1 µM.
The like results for `COc1cc(C)c(-c2nc3ccc(F)cn3c2Nc2c(Cl)cccc2Cl)c(OCC(N)=O)c1` [Compound A205, 2-[2-(Aminocarbonylmethoxy)-4-methoxy-6-methylphenyl]-3-(2,6-dichlorophenylamino)-6-fluoroimidazo[1,2-a]pyridine] were, in that order, 1 to 10 µM and 0.01 to 1 µM.
In the case of `COc1ccc(-c2nc3ccc(F)cn3c2Nc2c(C)cccc2C)c(OCC(N)=O)c1OC` [Compound A188, 2-[2-(Aminocarbonylmethoxy)-3,4-dimethoxy-phenyl]-3-(2,6-dimethylphenylamino)-6-fluoro-imidazo[1,2-a]pyridine], the IC50 is over 10 µM against SGLT1 and 1 to 10 µM against SGLT2.
On to `CCc1cc(OC)cc(OCC(N)=O)c1-c1nc2c(F)cc(F)cn2c1Nc1c(C)cccc1C` [Compound A221, 2-[2-(Aminocarbonylmethoxy)-4-methoxy-6-ethylphenyl]-3-(2,6-dimethylphenylamino)-6,8-difluoroimidazo[1,2-a]pyridine], for which the IC50 lay within 1 to 10 µM at SGLT1 and 0.01 to 1 µM on SGLT2.
`Cc1cccc(C(C)C)c1Nc1c(-c2ccccc2OCC(N)=O)nc2ccccn12` [Compound A7, 2-[2-(Aminocarbonylmethoxy)phenyl]-3-(2-isopropyl-6-methylphenylamino)imidazo-[1,2-a]pyridine]: the IC50 is over 10 µM against SGLT1 and 1 to 10 µM on SGLT2.
Taken in the same sequence, the figures for `COc1cc(C)c(-c2nc3ccccn3c2Nc2c(Cl)cc(F)cc2Cl)c(OCC(N)=O)c1` [Compound A224, 2-[2-(Aminocarbonylmethoxy)-4-methoxy-6-methylphenyl]-3-(4-fluoro-2,6-dichlorophenyl-amino)imidazo[1,2-a]pyridine] were 1 to 10 µM and 0.01 to 1 µM.
Take `CCc1cc(OCC(N)=O)cc(OCC(N)=O)c1-c1nc2ccccn2c1Nc1c(C)cccc1C` [Compound A167, 2-[2-(Aminocarbonylmethoxy)-4-(amino-carbonylmethoxy)-6-ethylphenyl]-3-(2,6-dimethylphenylamino)imidazo[1,2-a]pyridine]: the IC50 at SGLT1 is over 10 µM; on SGLT2, 0.01 to 1 µM.
